Measured values as given in article PMC9025560, “A Comparison of Evans Blue and 4-(p-Iodophenyl)butyryl Albumin Binding Moieties on an Integrin αvβ6 Binding Peptide” (Pharmaceutics, 2022).
Where two headings read alike, the source gives them in different places.

Legend:
[1] = Biodistribution in mice bearing BxPC-3 xenograft tumors; type: in vivo; conditions: female, athymic nu/nu-nude, mouse, in vivo, total radioactivity; for tissue uptake at 4 h: 4 h p.i.; for tissue uptake at 24 h: 24 h p.i.; for tissue uptake at 48 h: 48 h p.i.
Description: All animal procedures conformed to the Animal Welfare Act and were approved by the University of California, Davis Institutional Animal Care and Use Committee. Female athymic nu/nu-nude mice (6–8 weeks old) were purchased from Charles River Laboratories (Wilmington, MA, USA) and provided food and water on an ad libitum basis. BxPC-3 xenografts were implanted according to previous methods. Briefly, BxPC-3 cells were evaluated by flow cytometry to confirm integrin αvβ6 expression levels, injected subcutaneously into the left flank [5 million in 100 μL of a 1:1 mixture of serum-free RPMI and GFR Matrigel (Corning, New York, NY, USA)], and allowed to grow for approximately 3 weeks until tumors reached a diameter of 0.5–1 cm.
For biodistribution studies the [^64Cu]1–4 (3.7–5.55 MBq) in PBS (100 μL, pH 7.2) was injected intravenously (i.v.) via catheter into the tail vein. Following a conscious uptake period, the mice were anesthetized (5% isoflurane), euthanized, and dissected ([^64Cu]1 and [^64Cu]2, n = 3/radiolabeled peptide/time point; 4, 24, and 48 h p.i.; the 72 h time point was obtained from the imaging animals after the 72 h PET/CT scans; compounds [^64Cu]3 and [^64Cu]4, n = 2/radiolabeled compound at 4 h p.i.). Tissues were rapidly collected, weighed, and radioactivity measured with a γ-counter. Decay-corrected radioactivity concentrations are expressed as the percentage of injected dose per gram of tissue (% ID/g). Data are reported as mean ± standard deviation (SD) (Figure S20, S21 and S25).

human serum protein = assay: Human serum protein binding by ultrafiltration; type: in vitro ADME
Description: (§1) Serum protein binding of [^64Cu]1 and [^64Cu]2 was assessed following the previously reported method. Peptides [^64Cu]1 and [^64Cu]2 were evaluated by ultrafiltration using Centrifree Ultrafiltration devices (EMD) according to the manufacturer’s recommendations. Experiments were carried out in triplicate. The Centrifree Ultrafiltration devices were pretreated with PBS containing Tween 20 (5% v/v), followed by triplicate rinses with PBS. An aliquot of each peptide [^64Cu]1 or [^64Cu]2 in PBS (≤25 μL, 20–60 KBq) was thoroughly mixed with 0.5 mL of serum at 37 °C in a microfuge tube. The mixture was incubated at 37 °C for 5 min, and an aliquot (50 μL) was transferred to a tube for γ-counting. The remaining sample was transferred to a Centrifree Ultrafiltration device and centrifuged for 40 min at 1500 (RCF) at ambient temperature (20–24 °C). An aliquot (50 μL) of the filtrate was transferred to a tube for γ-counting. For each radiolabeled peptide, a blank was run using 0.5 mL PBS/Tween 20 (5% v/v) instead of serum (n = 3) to determine non-specific binding. Following γ-counting, the protein-bound radioactivity was calculated by subtracting the counts measured in the filtrate aliquot (i.e., not protein-bound) from the counts in the corresponding serum aliquot. The data are expressed as mean ± standard deviation of fraction of radioactivity bound to protein after subtraction of non-specific binding determined in the blank.

[2] = Stability in mouse serum at 37 °C; type: in vitro ADME
Description: For serum stability, mouse serum or human serum (0.5 mL, both purchased from Sigma-Aldrich) was combined with an aliquot of each of the peptides [^64Cu]1 and [^64Cu]2 (≤25 μL, 14.8–22.2 MBq) and incubated at 37 °C. At each time point (1, 4, and 24 h) an aliquot (50–200 μL) was taken, proteins precipitated with ethanol, and removed by pelleting at 1500 (RCF) for 4 min. The ethanol solution was diluted with water (1 mL) and analyzed by RP-HPLC as previously described.

mouse serum protein = assay: Mouse serum protein binding by ultrafiltration; type: in vitro ADME; conditions: 37 °C
Description: as §1, with “For each radiolabeled peptide, a blank was run using 0.5 mL PBS/Tween 20 (5% v/v) instead of serum (n = 3) to determine non-specific binding.” left out

[3] = iv, i.v., read-out: Blood uptake
[4] = iv, i.v., read-out: Bone uptake
[5] = iv, i.v., read-out: Brain uptake
[6] = iv, i.v., read-out: BxPC-3 Tumor uptake
[7] = iv, i.v., read-out: Fecal Matter radioactivity
[8] = iv, i.v., read-out: Gall Bladder uptake
[9] = iv, i.v., read-out: Heart uptake
[10] = iv, i.v., read-out: Kidneys uptake
[11] = iv, i.v., read-out: Lg. Intestines uptake
[12] = iv, i.v., read-out: Liver uptake
[13] = iv, i.v., read-out: Lung uptake
[14] = iv, i.v., read-out: Muscle uptake
[15] = iv, i.v., read-out: Pancreas uptake
[16] = iv, i.v., read-out: Skin uptake
[17] = iv, i.v., read-out: Sm. Intestines uptake
[18] = iv, i.v., read-out: Spleen uptake
[19] = iv, i.v., read-out: Stomach uptake
[20] = iv, i.v., read-out: Urine radioactivity

Compound: CC(C)C[C@H](NC(=O)[C@H](CC(=O)O)NC(=O)CNC(=O)[C@H](CCCNC(=N)N)NC(=O)[C@H](CC(C)C)NC(=O)[C@H](CC(N)=O)NC(=O)[C@@H]1CCCN1C(=O)[C@@H](NC(=O)[C@H](C)NC(=O)[C@H](CC(N)=O)NC(=O)CCOCCOCCOCCOCCOCCOCCOCCOCCOCCOCCOCCOCCOCCOCCOCCOCCOCCOCCOCCOCCOCCOCCOCCOCCOCCOCCOCCOCCNC(=O)[C@H](CCCCNC(=O)[C@H](CC(=O)O)NC(=O)CCCNC(=O)CCCc1ccc(I)cc1)NC(=O)CN1CCN(CC(=O)O)CCN(CC(=O)O)CCN(CC(=O)O)CC1)C(C)C)C(=O)N[C@@H](CCC(N)=O)C(=O)N[C@H](C(=O)N[C@@H](CC(C)C)C(=O)N[C@@H](C)C(=O)N[C@@H](CCC(N)=O)C(=O)N[C@@H](CCCNC(=N)N)C(=O)N[C@H](C(=O)N[C@@H](C)C(=O)N[C@@H](CCCNC(=N)N)C(=O)N[C@H](C(=O)NCCOCCOCCOCCOCCOCCOCCOCCOCCOCCOCCOCCOCCOCCOCCOCCOCCOCCOCCOCCOCCOCCOCCOCCOCCOCCOCCOCCOCCC(N)=O)[C@@H](C)O)C(C)C)C(C)C [[^64Cu]2, [^64Cu]Cu DOTA-IP-αvβ6-BP, metal not drawn]
- tissue uptake at 4 h [1, 3]: 1.21 ± 0.16 %ID/g
- tissue uptake at 4 h [1, 4]: 0.59 ± 0.15 %ID/g
- tissue uptake at 4 h [1, 5]: 0.12 ± 0.002 %ID/g
- tissue uptake at 4 h [1, 6]: 7.6 ± 0.43 %ID/g
- tissue uptake at 4 h [1, 7]: 9.32 ± 1.08 %ID/g
- tissue uptake at 4 h [1, 8]: 4.33 ± 2.64 %ID/g
- tissue uptake at 4 h [1, 9]: 2.22 ± 0.11 %ID/g
- tissue uptake at 4 h [1, 10]: 33.6 ± 5.39 %ID/g
- tissue uptake at 4 h [1, 11]: 9.83 ± 0.69 %ID/g
- tissue uptake at 4 h [1, 12]: 1.58 ± 0.26 %ID/g
- tissue uptake at 4 h [1, 13]: 2.25 ± 0.39 %ID/g
- tissue uptake at 4 h [1, 14]: 0.99 ± 0.3 %ID/g
- tissue uptake at 4 h [1, 15]: 1.04 ± 0.09 %ID/g
- tissue uptake at 4 h [1, 16]: 2.72 ± 0.31 %ID/g
- tissue uptake at 4 h [1, 17]: 9.55 ± 1.21 %ID/g
- tissue uptake at 4 h [1, 18]: 0.41 ± 0.13 %ID/g
- tissue uptake at 4 h [1, 19]: 18.1 ± 2.91 %ID/g
- tissue uptake at 4 h [1, 20]: 25.1 ± 6.79 %ID/g
- tissue uptake at 24 h [1, 3]: 0.2 ± 0.04 %ID/g
- tissue uptake at 24 h [1, 4]: 0.28 ± 0.21 %ID/g
- tissue uptake at 24 h [1, 5]: 0.08 ± 0.01 %ID/g
- tissue uptake at 24 h [1, 6]: 4.41 ± 1.25 %ID/g
- tissue uptake at 24 h [1, 7]: 4.58 ± 1.03 %ID/g
- tissue uptake at 24 h [1, 8]: 5.05 ± 3.56 %ID/g
- tissue uptake at 24 h [1, 9]: 1.61 ± 0.06 %ID/g
- tissue uptake at 24 h [1, 10]: 21.9 ± 1.74 %ID/g
- tissue uptake at 24 h [1, 11]: 5.58 ± 0.94 %ID/g
- tissue uptake at 24 h [1, 12]: 1.62 ± 0.2 %ID/g
- tissue uptake at 24 h [1, 13]: 1.69 ± 0.07 %ID/g
- tissue uptake at 24 h [1, 14]: 0.78 ± 0.22 %ID/g
- tissue uptake at 24 h [1, 15]: 0.78 ± 0.01 %ID/g
- tissue uptake at 24 h [1, 16]: 1.48 ± 0.03 %ID/g
- tissue uptake at 24 h [1, 17]: 4.58 ± 0.62 %ID/g
- tissue uptake at 24 h [1, 18]: 0.31 ± 0.05 %ID/g
- tissue uptake at 24 h [1, 19]: 11.1 ± 1.16 %ID/g
- tissue uptake at 24 h [1, 20]: 1.7 ± 1.91 %ID/g
- tissue uptake at 48 h [1, 3]: 0.2 ± 0.04 %ID/g
- tissue uptake at 48 h [1, 4]: 0.24 ± 0.09 %ID/g
- tissue uptake at 48 h [1, 5]: 0.09 ± 0.01 %ID/g
- tissue uptake at 48 h [1, 6]: 4.09 ± 1.28 %ID/g
- tissue uptake at 48 h [1, 7]: 2.67 ± 0.58 %ID/g
- tissue uptake at 48 h [1, 8]: 2.83 ± 0.86 %ID/g
- tissue uptake at 48 h [1, 9]: 1.43 ± 0.2 %ID/g
- tissue uptake at 48 h [1, 10]: 11.8 ± 1.02 %ID/g
- tissue uptake at 48 h [1, 11]: 3.95 ± 0.81 %ID/g
- tissue uptake at 48 h [1, 12]: 1.71 ± 0.21 %ID/g
- tissue uptake at 48 h [1, 13]: 1.33 ± 0.15 %ID/g
- tissue uptake at 48 h [1, 14]: 0.63 ± 0.07 %ID/g
- tissue uptake at 48 h [1, 15]: 0.64 ± 0.08 %ID/g
- tissue uptake at 48 h [1, 16]: 1.22 ± 0.22 %ID/g
- tissue uptake at 48 h [1, 17]: 2.28 ± 0.1 %ID/g
- tissue uptake at 48 h [1, 18]: 0.35 ± 0.05 %ID/g
- tissue uptake at 48 h [1, 19]: 6.4 ± 1.02 %ID/g
- tissue uptake at 48 h [1, 20]: 3.24 ± 1.03 %ID/g
- tissue uptake at 72 h ([1]; iv, 72 h p.i., i.v., read-out: Blood uptake): 0.17 ± 0.001 %ID/g
- tissue uptake at 72 h ([1]; iv, 72 h p.i., i.v., read-out: Bone uptake): 0.26 ± 0.01 %ID/g
- tissue uptake at 72 h ([1]; iv, 72 h p.i., i.v., read-out: Brain uptake): 0.1 ± 0.02 %ID/g
- tissue uptake at 72 h ([1]; iv, 72 h p.i., i.v., read-out: BxPC-3 Tumor uptake): 4.91 ± 1.19 %ID/g
- tissue uptake at 72 h ([1]; iv, 72 h p.i., i.v., read-out: Fecal Matter radioactivity): 2.29 ± 0.53 %ID/g
- tissue uptake at 72 h ([1]; iv, 72 h p.i., i.v., read-out: Gall Bladder uptake): 3.21 ± 1.02 %ID/g
- tissue uptake at 72 h ([1]; iv, 72 h p.i., i.v., read-out: Heart uptake): 1.05 ± 0.05 %ID/g
- tissue uptake at 72 h ([1]; iv, 72 h p.i., i.v., read-out: Kidneys uptake): 11.5 ± 1.02 %ID/g
- tissue uptake at 72 h ([1]; iv, 72 h p.i., i.v., read-out: Lg. Intestines uptake): 3 ± 0.37 %ID/g
- tissue uptake at 72 h ([1]; iv, 72 h p.i., i.v., read-out: Liver uptake): 1.3 ± 0.13 %ID/g
- tissue uptake at 72 h ([1]; iv, 72 h p.i., i.v., read-out: Lung uptake): 1.16 ± 0.22 %ID/g
- tissue uptake at 72 h ([1]; iv, 72 h p.i., i.v., read-out: Muscle uptake): 0.76 ± 0.24 %ID/g
- tissue uptake at 72 h ([1]; iv, 72 h p.i., i.v., read-out: Pancreas uptake): 0.57 ± 0.06 %ID/g
- tissue uptake at 72 h ([1]; iv, 72 h p.i., i.v., read-out: Skin uptake): 0.92 ± 0.14 %ID/g
- tissue uptake at 72 h ([1]; iv, 72 h p.i., i.v., read-out: Sm. Intestines uptake): 1.24 ± 0.11 %ID/g
- tissue uptake at 72 h ([1]; iv, 72 h p.i., i.v., read-out: Spleen uptake): 0.38 ± 0.14 %ID/g
- tissue uptake at 72 h ([1]; iv, 72 h p.i., i.v., read-out: Stomach uptake): 3.14 ± 0.62 %ID/g
- tissue uptake at 72 h ([1]; iv, 72 h p.i., i.v., read-out: Urine radioactivity): 1.46 ± 1.17 %ID/g
- tissue uptake at 72 h ([1]; 72 h, read-out: GI uptake): < 3.2 %ID/g
- tissue uptake ([1]; throughout 4–72 h, read-out: Liver uptake throughout): < 3 %ID/g
- Binding to human serum protein (human serum protein; 37 °C, ultrafiltration): 63.3 ± 1.5%
- Serum albumin binding (human serum protein; abstract, serum species not stated): 42–44%
- Fold higher stability than [64Cu]1 in mouse serum ([2]; 24 h): 3.4 fold
- remaining at 1 h ([2]; mouse, mouse serum, 1 h, read-out: Stability in mouse serum, % intact): 92%
- remaining at 4 h ([2]; mouse, mouse serum, 4 h, read-out: Stability in mouse serum, % intact): 83%
- remaining at 24 h ([2]; mouse, mouse serum, 24 h, read-out: Stability in mouse serum, % intact): 48%
- Binding to mouse serum protein (mouse serum protein): 44.0 ± 0.1%
